Experimental data taken from patent US20150017673A1, “COMPOSITIONS AND METHODS FOR DRUG-SENSITIZATION OR INHIBITION OF A CANCER CELL” (priority 2012, published 2015).
Where two headings read alike, the source gives them in different places. Numbered stars: 1 amine (or outer) side, 2 acyl side, 3 side chain; on linkers, the order of the positions; unused ones are H or OH. Bridge positions count the residues as written; N and C are the ends. Square brackets hold non-standard residues; d marks the D form. Peptide text beside a SMILES is read from it. I, II: the chains in the order shown. Actinocin(9to1) = Cc1c2oc3c(C)ccc(C(=O)[*:1])c3nc-2c(C(=O)[*:2])c(N)c1=O; NMeV = CN[C@H](C(=O)O)C(C)C; Sar = CNCC(=O)O

Legend:
[1] = tested on: T lymphoblastoid leukemia MOLT-4; assay: Cell growth assay on MOLT-4 cells; assay type: cell-based
Description: (§1) Compositions were tested on CHOP-resistant G3 NHL cells that had been cultivated in RPMI medium for five days. Prior to assay, the cells were counted by haemocytometer and cell concentration standardized to 625,000 cells/ml. Test drugs were solubilized in 100% DMSO and then diluted to final assay concentration with 0.1M phosphate buffered saline (PBS) and a final DMSO concentration of 0.5%. Cells were added to assay plates containing the test drugs (rifabutin+148 ng/ml, 74 ng/ml, 37 ng/ml, or 0 ng/ml doxorubicin) and allowed to incubate for 96 hours at 37° C. and 5% CO2. The metabolic dye rezasurin was added to the wells of the assay plate at a final concentration of 20 μg/ml and the plates were incubated for an additional 24 hours. The plates were then read in a BMG Polarstar plate reader at wavelength (573-605) and the data plotted as OD versus increasing dilutions (i.e. decreasing total amounts) of rifabutin derivative concentration.
(§2) Additional cell lines used include: ovarian cancer OVCAR-8, T lymphoblastoid leukemia MOLT-4, dexamethasone-resistant multiple myeloma MM.1R, myeloid leukemia cells HL-60, osteosarcoma cells U-2 OS, and myeloma RPMI 8226.

[2] = tested on: multi-drug resistant sarcoma cell line MES-SA-Dx5; assay: Cell growth assay on MES-SA-Dx5 cells; assay type: cell-based; conditions: for Magnitude of potentiation in combination with doxorubicin: MES-SA-Dx5, uterus sarcoma
Description: as §1
(§3) In these experiments, the following cell lines were used: CHOP-resistant NHL cell line G3, CHOP-sensitive NHL cell line CRL2631, the multi-drug resistant sarcoma cell line MES-SA-Dx5; multi-drug-resistant breast cancer cell line MDA-MB-231, multi-drug resistant ovarian carcinoma cell line SK-OV3, multi-drug resistant ovarian cancer cell line NCI/ADR-RES, drug-sensitive ovarian cancer cell line OVCAR-5, and multi-drug resistant ovarian cancer cell line OVCAR-3.
as §2

[3] = tested on: dexamethasone-resistant multiple myeloma MM.1R; assay: Cell growth assay on MM.1R cells; assay type: cell-based; conditions: for Fold increase in potency: with vs without Rifabutin
Description: as §1, §2

[4] = tested on: multi-drug resistant ovarian carcinoma cell line SK-OV3; assay: Cell growth assay on SK-OV3 cells; assay type: cell-based, human; conditions: SK-OV3, ovarian carcinoma
Description: as §1
as §3, with “OVCAR-3. […]” for “OVCAR-3.”

[5] = tested on: drug-sensitive ovarian cancer cell line OVCAR-5; assay: Cell growth assay on OVCAR-5 cells; assay type: cell-based; conditions: for Magnitude of potentiation in combination with doxorubicin: OVCAR-5, ovarian carcinoma; for IC50: Homo sapiens
Description: as §1, §3, §2

[6] = tested on: multi-drug resistant ovarian cancer cell line OVCAR-3; assay: Cell growth assay on OVCAR-3 cells; assay type: cell-based; conditions: for IC50: Homo sapiens
Description: as §1
as §3, with “OVCAR-3. […]” for “OVCAR-3.”

lymphoma cell line G3 = assay: Cell growth assay (resazurin fluorescence) on CHOP-resistant G3 NHL cells; assay type: cell-based, human; conditions: for Magnitude of potentiation in combination with doxorubicin: G3, lymphoma B cells; for Fold increase in potency over DOX alone / IC50: lymphoma cell line G3
Description: as §1

[7] = tested on: multi-drug resistant ovarian cancer cell line NCI/ADR-RES; assay: Cell growth assay on NCI/ADR-RES cells; assay type: cell-based; conditions: NCI/ADR-RES, ovarian carcinoma
Description: as §1, §3, §2

calcium in G3 cells = assay: Calcium mobilization (Fluo-4AM, flow cytometry); assay type: cell-based, human; conditions: Dox-resistant cells (G3R, 10R, WSUR), 10 uM, 2 hrs, FIG. 41B/41C
Description: MDR/P-gp activity is closely associated with calcium status in the cell, so calcium modulators were tested for effects on ROS. […] Relatively Dox-sensitive lymphoma (CRL2631, 10S, WSU) and ovarian carcinoma (OVCAR8) and more Dox-resistant lymphoma (G3R,10R, WSUR) and ovarian carcinoma (ADR) were treated with 10 uM […] for 2 hrs. […] Cells were co-stained with the cell-permeable red fluorescent ROS indicator, CellROX, and cell-permeable green fluorescent calcium indicator, Fluo-4AM, and then subjected to flow cytometry to quantitate changes in ROS and calcium levels.
(§4) All samples were analyzed at the same time in flow cytometry.

[8] = tested on: ROS in ADR-RES ovarian cells; assay: Intracellular ROS (CellROX, flow cytometry) in ADR-RES cells; assay type: cell-based; conditions: 10 uM, 2 hrs
From the text: (§5) Cells were then stained with the fluorescent ROS indicator, CellROX, and subjected to flow cytometry to quantitate total intracellular ROS.

[9] = tested on: ROS in OVCAR8 ovarian cells; assay: Intracellular ROS (CellROX, flow cytometry) in OVCAR8 cells; assay type: cell-based; conditions: 10 uM, 2 hrs, degree much less than in resistant lines
From the text: as §5

ROS in G3 lymphoma cells = assay: Intracellular ROS (CellROX, flow cytometry) in G3 cells; assay type: cell-based, human; conditions: 10 uM, 2 hrs
Description: as §5
The electron transport chain (ETC) is known to be a primary generator of ROS in the cell. Most of the ROS is generated by Complexes I and III of the ETC Inhibition of Complex I results in electrons piling up and leaking to react with oxygen to produce ROS.
as §4

[10] = tested on: primary human fibroblasts; conditions: with and without 2 uM Dox
[11] = tested on: G3 CHOP-resistant NHL cells; conditions: fourth study
Description: In a first efficacy study, 6-8 week old female SCID mice (7 mice per treatment arm) were injected subcutaneously on both flanks with 1×10^7 G3 CHOP-resistant NHL cells. Once palpable tumors (about […] size) appeared, therapies (CHOP or CHOP+rifabutin) were started. CHOP was administered at the maximum tolerated dose (cyclophosphamide, 40 mg/kg i.v.; doxorubicin, 3.3 mg/kg i.v.; vincristine, 0.5 mg/kg i.v.; and prednisone, 0.2 mg/kg orally daily for 5 d) weekly for 3 weeks. Rifabutin in an amount of 100 mg/kg was administered on the day of each CHOP treatment and 24-hours later by gavage. Mouse body weight and tumor size were monitored every two days and tumor size measured by caliper. The tumor volume formula (L*W*W)/2 was used to calculate tumor mass.
A second efficacy study was conducted where mice were treated before the appearance of palpable tumors. In that experiment, one week after transplantation of CHOP-resistant G3 cells, one group (7 mice) was treated with CHOP-only and a second group (8 mice) was treated with CHOP+rifabutin.
A third study was conducted in which mice injected with CHOP-resistant G3 cells received reduced dosages of CHOP in combination with 33 mg/kg rifabutin. CHOP+rifabutin was administered weekly beginning one week post-inoculation. Control mice were given no CHOP or rifabutin.
SCID mice were injected with CHOP-resistant G3 cells in the same manner as the first efficacy study above. Treatments began 2 weeks post-inoculation and were administered twice weekly.

[12] = therapeutic drug alone, read-out: IC50
[13] = therapeutic drug with Rifabutin, read-out: IC50 (μM) with Rifabutin
[14] = with 1 μM doxorubicin, read-out: IC50 (μM) with doxorubicin (1 μM)

Cc1c2oc3c(C)ccc(C(=O)N[C@@H]4C(=O)N[C@H](C(C)C)C(=O)N5CCC[C@H]5C(=O)N(C)CC(=O)N(C)[C@@H](C(C)C)C(=O)O[C@@H]4C)c3nc-2c(C(=O)N[C@@H]2C(=O)N[C@H](C(C)C)C(=O)N3CCC[C@H]3C(=O)N(C)CC(=O)N(C)[C@@H](C(C)C)C(=O)O[C@@H]2C)c(N)c1=O [Actinomycin D, actinomycin D] (I: T[dV]P[Sar][NMeV] / II: T[dV]P[Sar][NMeV]; ester I:1-I:C, II:1-II:C; linker I:N-II:N via Actinocin(9to1))
IC50 [1, 12]: 0.04 µM | IC50 [1, 13]: < 0.008 µM | Fold increase in potency ([1]; with vs without Rifabutin): >5 fold | IC50 ([2]; therapeutic drug alone, MES-SA-Dx5, read-out: IC50): 0.03 µM | IC50 ([2]; therapeutic drug with Rifabutin, MES-SA-Dx5, read-out: IC50 (μM) with Rifabutin): 0.01 µM | Fold increase in potency ([2]; with vs without Rifabutin, MES-SA-Dx5): 3 fold

CC[C@@]1(O)C(=O)OCc2c1cc1n(c2=O)Cc2cc3ccccc3nc2-1 [Camptothecin, camptothecin]
IC50 [3, 12]: 1.13 µM | IC50 [3, 13]: 0.3 µM | Fold increase in potency [3]: 3.8 fold

CO[C@H]1/C=C/O[C@@]2(C)Oc3c(C)c(O)c4c(c3C2O)C2=NC3(CCN(C(=O)OCC(C)C)CC3)NC2=C(NC(=O)/C(C)=C\C=C\[C@H](C)[C@H](O)[C@@H](C)[C@@H](O)[C@@H](C)[C@H](OC(C)=O)[C@@H]1C)C4=O (stereo partly drawn) [RTI-175, 11-deoxy-11-hydroxy-4-deoxy-3,4[2-spiro-[1-(isobutyloxycarbonyl)-piperidin-4-yl]]-(1H)-imidazo-(2,5-dihydro)rifamycin S]
Magnitude of potentiation in combination with doxorubicin [4]: +++ (potentiation greater than 5 fold increase) | Magnitude of potentiation in combination with doxorubicin [5]: ++ (potentiation between 2.1 to 5 fold increase) | Magnitude of potentiation in combination with doxorubicin ([6]; OVCAR-3, ovarian carcinoma): + (potentiation between 1.2 to 2.0 fold increase) | Magnitude of potentiation in combination with doxorubicin [2]: + (potentiation between 1.2 to 2.0 fold increase) | Magnitude of potentiation in combination with doxorubicin (lymphoma cell line G3): ++ (potentiation between 2.1 to 5 fold increase) | Fold increase in potency over DOX alone (lymphoma cell line G3): 2.2 fold | Magnitude of potentiation in combination with doxorubicin [7]: ++ (potentiation between 2.1 to 5 fold increase)

COc1cc2c(cc1OC)CN(CCc1ccc(NC(=O)c3cccc4c(=O)c5cccc(OC)c5[nH]c34)cc1)CC2 [elacridar]
calcium mobilization (calcium in G3 cells): induced calcium in a similar manner as RTI-79 | total intracellular ROS [8]: induced ROS | total intracellular ROS [9]: induced ROS | total intracellular ROS (ROS in G3 lymphoma cells): induced ROS

CC(C)C[C@H](NC(=O)[C@H](Cc1ccccc1)NC(=O)c1cnccn1)B(O)O [Velcade, bortezomib]
IC50 ([5]; therapeutic drug alone, OVCAR-5, read-out: IC50): 0.17 µM | IC50 ([5]; therapeutic drug with Rifabutin, OVCAR-5, read-out: IC50 (μM) with Rifabutin): 0.08 µM | Fold increase in potency ([5]; with vs without Rifabutin, OVCAR-5): 2.1 fold

COC1C=COC2(C)Oc3c(C)c(O)c4c(c3C2N)C2=NC3(CCN(C(=O)OCC(C)C)CC3)NC2=C(NC(=O)C(C)=CC=CC(C)C(O)C(C)C(O)C(C)C(OC(C)=O)C1C)C4=O (stereo not drawn) [RTI-176, 11-deoxy-11-amino-4-deoxy-3,4[2-spiro-[1-(isobutyloxycarbonyl)-piperidin-4-yl]]-(1H)-imidazo-(2,5-dihydro)rifamycin S]
Magnitude of potentiation in combination with doxorubicin [4]: +++ (potentiation greater than 5 fold increase) | Magnitude of potentiation in combination with doxorubicin [5]: + (potentiation between 1.2 to 2.0 fold increase) | comparative cytotoxicity to normal cells [10]: not toxic to normal cells | Magnitude of potentiation in combination with doxorubicin (lymphoma cell line G3): +++ (potentiation greater than 5 fold increase) | IC50 (lymphoma cell line G3; analog alone, read-out: IC50): > 64 µM | Fold increase in potency over DOX alone (lymphoma cell line G3): 5.2 fold | IC50 (lymphoma cell line G3; [14]): 0.45 µM

COC1C=COC2(C)Oc3c(C)c(O)c4c(c3C2=N)C2=NC3(CCN(C(=O)OCC(C)C)CC3)NC2=C(NC(=O)C(C)=CC=CC(C)C(O)C(C)C(O)C(C)C(OC(C)=O)C1C)C4=O (stereo not drawn) [RTI-81, 11-deoxy-11-imino-4-deoxy-3,4[2-spiro-[1-(isobutyloxycarbonyl)-piperidin-4-yl]]-(1H)-imidazo-(2,5-dihydro)rifamycin S]
Magnitude of potentiation in combination with doxorubicin [4]: +++ (potentiation greater than 5 fold increase) | Magnitude of potentiation in combination with doxorubicin [2]: ++ (potentiation between 2.1 to 5 fold increase) | longer life than doxorubicin only ([11]; DOX 3.3 mg/kg iv + RTI-81 10 mg/kg by gavage twice weekly): 27% | mean lifespan ([11]; doxorubicin+RTI-81 group): 42.6 | median lifespan ([11]; doxorubicin+RTI-81 group): 42 | Magnitude of potentiation in combination with doxorubicin (lymphoma cell line G3): +++ (potentiation greater than 5 fold increase) | IC50 (lymphoma cell line G3; analog alone, read-out: IC50): > 64 µM | IC50 (lymphoma cell line G3; [14]): 0.3 µM | Magnitude of potentiation in combination with doxorubicin [7]: + (potentiation between 1.2 to 2.0 fold increase)

CC1=CC(=O)c2ccccc2C1=O [Menadione, menadione]
IC50 ([6]; therapeutic drug alone, OVCAR-3, read-out: IC50): > 32 µM | IC50 ([6]; therapeutic drug with Rifabutin, OVCAR-3, read-out: IC50 (μM) with Rifabutin): 10.9 µM | Fold increase in potency ([6]; with vs without Rifabutin, OVCAR-3): >2.9 fold | IC50 [3, 12]: 4 µM | IC50 [3, 13]: 2 µM | Fold increase in potency [3]: 2 fold

COC(=O)[C@H]1[C@H]2C[C@@H]3c4[nH]c5cc(OC)ccc5c4CCN3C[C@H]2C[C@@H](OC(=O)c2cc(OC)c(OC)c(OC)c2)[C@@H]1OC [reserpine]
total intracellular ROS [8]: induced ROS | total intracellular ROS [9]: induced ROS | total intracellular ROS (ROS in G3 lymphoma cells): induced ROS
